Values joined by “and” are separate entries in the source; they are usually repeats but may differ in a detail not shown here. Identical values can stand only once. Like-named read-outs stand apart in the source and are kept apart here.
Key:
[1] = tested on: EMT-6 cancer cells; assay: EMT-6 subcutaneous syngeneic mouse tumor model (Example 48); format: in vivo, BALB/C mice; conditions: 40 mg/kg, IP
Protocol: This example describes in vivo studies that evaluated the anti-cancer efficacy of ARI-143, ARI-164, ARI-165, and ARI-186 in syngeneic mouse tumor models. Mice implanted subcutaneously with EMT-6 or Pan02 cancer cells were treated with ARI-143, ARI-164, ARI-165, ARI-186, or vehicle controls, as described below.
A monolayer culture of tumor cells was maintained in vitro in DMEM or RPMI1640 medium supplemented with 10% fetal bovine serum at 37° C. in an atmosphere of 5% CO2. Cells in exponential growth phase were harvested and quantitated by cell counter before tumor inoculation. The cell lines used are described in the table below.
Two subcutaneous syngeneic mouse tumor models were generated by innoculating female BALB/C or C57BL/6 mice with cancer cells at their right lower or front flank as detailed in the table below:
Each mouse was inoculated subcutaneously with tumor cells in 0.1 mL of PBS. Treatments were started when the mean tumor size reached approximately 80-120 mm^3 (around 100 mm^3). The administration of the test compounds and the animal number in each study group are shown in the study design. The date of tumor cell inoculation was denoted as day 0.
ARI-143, ARI-164, and ARI-165 were dissolved in DMSO at the final concentration of 26.7 mg/ml and stored at room temperature. In Pan02 studies of ARI-164 and ARI-186, both compounds were dissolved in 100% PEG400.
Randomization of animals was started when the mean tumor size reached approximately 90 mm^3 to form the mouse study groups. The randomization was-performed based on “Matched distribution” method using the multi-task method (StudyDirector™ software, version 3.1.399.19)/randomized block design. The mouse groups (ten in each group) were treated with vehicle (DMSO or PEG400) or the test compounds at a dose of 26-80 mg/kg by intraperitoneal (i.p.). injection, QD for 28 days or longer.
After tumor cell inoculation, the mice were checked daily for morbidity and mortality. During routine monitoring, the mice were checked for tumor growth and any effects of the treatment on behavior such as mobility, food and water consumption, body weight gain/loss (body weights were measured twice per week after randomization), eye/hair matting, and any other abnormalities. Mortality and observed clinical signs were recorded for individual mice in detail.
Tumor volumes were measured twice per week in two dimensions using a caliper, and the volume was expressed in mm^3 using the formula: V=(L×W×W)/2, where V is tumor volume, L is tumor length (the longest tumor dimension) and W is tumor width (the longest tumor dimension perpendicular to L). Dosing as well as tumor and body weight measurements was conducted in a Laminar Flow Cabinet. The body weights and tumor volumes were measured by using StudyDirector™ software (version 3.1.399.19). Dosing Holiday
Tumor growth inhibition percentage (TGI %) is an indicator for antitumor activity of a drug compound, and expressed as: TGI(%)=100×(1−T/C), where T and C are the mean tumor volume (or weight) of the treated and control groups, respectively, on a given day. Statistical analysis of the difference in mean tumor volume (MTV) among the groups was conducted using the data collected on the day when the MTV of the vehicle group reached the humane endpoints, so that TGI could be derived for all or most mice enrolled in the study.

[2] = In vivo pharmacokinetic studies in rats; parameters: species or system SD rats; conditions: rats; for AUC(0-t): read-out: AUClast; for Tmax: read-out: Tmax
Protocol: This example describes pharmacokinetic (PK) studies of ARI-164, ARI-165, ARI-186, ARI-224, and ARI-226 in mice and rats. In the present studies, the test compounds were given to groups of mice and/or rats (N=3 in each group), intravenously (IV) at 2 mg/kg or orally (PO) at 10, 30, or 40 mg/kg. ARI-186, ARI-224 and ARI-226 were given orally to rats QD for 5 days at 10 mg/kg to assess whether decreased susceptibility to CYP1A1/1A2 metabolism would lead to increased accumulation. IV doses were formulated in DMSO, while PO doses were formulated in a 50/50 mixture of PEG400 and Tween 80 (single dose mouse and rat studies for ARI-164, ARI-165, ARI-186, ARI-224, ARI-226) or PEG400/Kolliphor HS15/Oleic Acid 45/45/10 (ARI-164 repeat dose rat study). Blood samples were collected at pre-dose and over a period of 24 hours post-dose. Plasma concentrations of the test compounds were determined by HPLC.

[3] = SD, rat, plasma, iv, 2 mg/kg, single 2 mg/kg IV dose, Mean of 3 animals
[4] = SD, rat, plasma, iv, 2 mg/kg, single 2 mg/kg IV dose, individual animal
[5] = Sprague-Dawley (SD), rat, plasma, iv, 2 mg/kg, single 2 mg/kg IV dose, Mean of 3 animals
[6] = Sprague-Dawley (SD), rat, plasma, po, 10 mg/kg, single 10 mg/kg PO dose, Mean of 3 animals
[7] = Sprague-Dawley (SD), rat, plasma, po, 10 mg/kg, single 10 mg/kg PO dose, individual animal
[8] = single 2 mg/kg IV dose, individual animal, 2 mg/kg
[9] = single 10 mg/kg PO dose, individual animal, 10 mg/kg

AUC(0-inf) [2, 3]: 12800 ng·h/mL | clearance [2, 3]: 5.38 mL/min/kg | AUC(0-t) [2, 3]: 12600 ng·h/mL | MRT inf [2, 4]: 0.81 h | MRT last [2, 4]: 0.79 h | Tmax [2, 4]: 0.083 h | MRT inf [2, 5]: 1.11 h | MRT last [2, 5]: 0.959 h | half-life [2, 5]: 79.8 min | Cmax ([2]; Sprague-Dawley (SD), rat, plasma, iv, 2 mg/kg, single 2 mg/kg IV dose, Mean of 3 animals, read-out: Cmax): 19200 ng/mL | Tmax [2, 5]: 0.083 h | Vd ([2]; Sprague-Dawley (SD), rat, plasma, iv, 2 mg/kg, single 2 mg/kg IV dose, Mean of 3 animals, read-out: Vss): 0.32 L/kg | AUC(0-inf) [2, 6]: 4310 ng·h/mL | MRT inf [2, 6]: 3.08 h | MRT last [2, 6]: 2.82 h | half-life [2, 6]: 65.4 min | AUC(0-t) [2, 6]: 4160 ng·h/mL | Cmax ([2]; Sprague-Dawley (SD), rat, plasma, po, 10 mg/kg, single 10 mg/kg PO dose, Mean of 3 animals, read-out: Cmax): 1120 ng/mL | Tmax [2, 6]: 2 h | AUC(0-inf) [2, 7]: 4680 ng·h/mL | MRT inf [2, 7]: 3.41 h | MRT last [2, 7]: 2.71 h | AUC(0-t) [2, 7]: 4260 ng·h/mL | Cmax ([2]; Sprague-Dawley (SD), rat, plasma, po, 10 mg/kg, single 10 mg/kg PO dose, individual animal, read-out: Cmax): 1250 ng/mL | Tmax [2, 7]: 2 h | bioavailability ([2]; Sprague-Dawley (SD), rat, plasma, 10 mg/kg PO vs 2 mg/kg IV, read-out: F (Bioavailability)): 6.73% | MRTinf [2, 8]: 1.61 h and 0.91 h | MRTlast [2, 8]: 1.28 h and 0.8 h | T1/2 [2, 8]: 64.2 min and 127 min and 49.8 min | Vss [2, 8]: 83.2 mL/kg and 198 mL/kg and 677 mL/kg | AUCinf [2, 9]: 4650 ng·h/mL and 3620 ng·h/mL | AUClast [2, 9]: 4640 ng·h/mL and 3560 ng·h/mL | Cmax [2, 9]: 1070 ng/mL and 1040 ng/mL | MRTinf [2, 9]: 3.12 h and 2.71 h | MRTlast [2, 9]: 3.12 h and 2.64 h | T1/2 [2, 9]: 112 min and 32.5 min and 52.2 min
Structure (SMILES): CC[C@@H](O)c1csc(C(=O)c2c[nH]c3cc(F)ccc23)n1 [ARI-165, (R)-(6-Fluoro-1H-indol-3-yl)(4-(1-hydroxypropyl)thiazol-2-yl)methanone]
TGI ([1]; study day 6): 0.0% | TGI ([1]; study day 10): −7.9% | TGI ([1]; study day 13): −8.6% | TGI ([1]; study day 17): 14.5% | TGI ([1]; study day 20): 23.1% | TGI ([1]; study day 24): 25.8% | TGI ([1]; study day 27): 12.5% | TGI ([1]; study day 31): 9.1% | AUCinf [2, 8]: 19500 ng·h/mL and 16300 ng·h/mL and 2690 ng·h/mL | AUClast [2, 8]: 19500 ng·h/mL and 15700 ng·h/mL and 2620 ng·h/mL | Cl [2, 8]: 103 mL/h/kg and 123 mL/h/kg and 744 mL/h/kg | Cmax [2, 8]: 36500 ng/mL and 17100 ng/mL and 3880 ng/mL
